From the supplement of paper PMC11061612

Columns and labels:
[1] = system: H4 (Low Grade Glioma); assay: Bliss excess, mean over the matrix (fraction); higher = more synergy
How it was run: (§1)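 Bliss excess equals the observed combination effect minus the expected value EA + EB − EA·EB, where EA and EB are the effects of each agent alone. Combination Emax is the second-highest inhibition within the matrix. Inhibition was scaled from CellTiter-Glo 2.0 luminescence, with 0 set by vehicle wells and 1 by blank wells, after 72 hours of two-drug dosing of cells plated in 1536-well plates.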

[2] = system: SLVL (B-Cell Non-Hodgkin's Lymphoma); assay: as above
How it was run: as §1

[3] = system: EW-22 (Ewing's Sarcoma); assay: as above
How it was run: as §1

[4] = system: CS1 (Chondrosarcoma); assay: as above
How it was run: as §1

[5] = system: SK-MEL-1 (Melanoma); assay: as above
How it was run: as §1

[6] = system: CAL-39 (Other Solid Carcinomas); assay: as above
How it was run: as §1

[7] = system: DOK (Oral Cavity Carcinoma); assay: as above
How it was run: as §1

[8] = system: FU-OV-1 (Ovarian Carcinoma); assay: as above
How it was run: as §1

[9] = system: HLE (Hepatocellular Carcinoma); assay: as above
How it was run: as §1

[10] = system: P31-FUJ (Acute Myeloid Leukemia); assay: as above
How it was run: as §1

[11] = system: HCT-116 (Colorectal Carcinoma); assay: as above
How it was run: as §1

[12] = system: BICR78 (Oral Cavity Carcinoma); assay: as above
How it was run: as §1

[13] = system: SK-LMS-1 (Other Solid Carcinomas); assay: as above
How it was run: as §1

[14] = system: WSU-DLCL2 (B-Cell Non-Hodgkin's Lymphoma); assay: combination Emax (second highest fraction inhibited in the dose matrix, 72 h); higher = more inhibition; extreme values may be limits of the assay
How it was run: as §1

[15] = system: EW-22 (Ewing's Sarcoma); assay: as above
How it was run: as §1

[16] = system: CS1 (Chondrosarcoma); assay: as above
How it was run: as §1

[17] = system: CAL-39 (Other Solid Carcinomas); assay: as above
How it was run: as §1

[18] = system: HLE (Hepatocellular Carcinoma); assay: as above
How it was run: as §1

[19] = system: SK-UT-1 (Other Solid Carcinomas); assay: as above
How it was run: as §1

[20] = system: BICR78 (Oral Cavity Carcinoma); assay: as above
How it was run: as §1

Structure (SMILES) | Bliss excess [1] | Bliss excess [2] | Bliss excess [3] | Bliss excess [4] | Bliss excess [5] | Bliss excess [6] | Bliss excess [7] | Bliss excess [8] | Bliss excess [9] | Bliss excess [10] | Bliss excess [11] | Bliss excess [12] | Bliss excess [13] | combination Emax [14] | combination Emax [15] | combination Emax [16] | combination Emax [17] | combination Emax [18] | combination Emax [19] | combination Emax [20]
C[C@@H](Nc1cc(F)cc(F)c1)c1cc(C(=O)N(C)C)cc2c(=O)cc(N3CCOCC3)oc12 [AZD8186] + C1CN(CCC1(C(=O)N[C@@H](CCO)C2=CC=C(C=C2)Cl)N)C3=NC=NC4=C3C=CN4 [AZD5363] (first compound max 10 µM, 7x7, partner max 10 µM) | -0.0049 | 0.0553 | -0.0197 | -0.0711 | -0.039 | 0.0492 | -0.0231 | -0.117 | 0.0045 | -0.03 | -0.0362 | -0.0269 | 0.0606 | 1 | 0.45 | 0.264 | 0.667 | 0.144 | 0.344 | 0.394
C[C@@H](Nc1cc(F)cc(F)c1)c1cc(C(=O)N(C)C)cc2c(=O)cc(N3CCOCC3)oc12 [AZD8186] + CC(=O)c1c(C)c2cnc(Nc3ccc(N4CCNCC4)cn3)nc2n(C2CCCC2)c1=O [Palbociclib] (first compound max 10 µM, 7x7, partner max 10 µM) | 0.122 | 0.0035 | 0.05 | 0.0326 | 0.0098 | 0.125 | 0.0079 | -0.0311 | 0.0326 | -0.0164 | 0.0488 | -0.0525 | 0.147 | 0.762 | 0.45 | 0.513 | 0.772 | 0.197 | 0.231 | 0.385
C[C@@H](Oc1cc(-c2cnn(C3CCNCC3)c2)cnc1N)c1c(Cl)ccc(F)c1Cl [Crizotinib] + CC1=C(C(=CC=C1)Cl)NC(=O)C2=CN=C(S2)NC3=CC(=NC(=N3)C)N4CCN(CC4)CCO [Dasatinib] (first compound max 10 µM, 7x7, partner max 2 µM) | 0.0857 | 0.0167 | -0.0466 | 0.112 | -0.0554 | 0.027 | -0.0008 | 0.0761 | 0.0195 | -0.0311 | 0.0243 | 0.0142 | 0.153 | 0.751 | 0.766 | 0.836 | 0.987 | 0.404 | 0.454 | 0.829
C[C@@H](Oc1cc(-c2cnn(C3CCNCC3)c2)cnc1N)c1c(Cl)ccc(F)c1Cl [Crizotinib] + Cn1cnc2c(F)c(Nc3ccc(Br)cc3Cl)c(C(=O)NOCCO)cc21 [Selumetinib] (first compound max 10 µM, 7x7, partner max 10 µM) | 0.0034 | -0.0414 | -0.0226 | -0.0203 | -0.0618 | 0.0132 | 0.017 | 0.0748 | 0.0014 | -0.0781 | 0.0323 | 0.0006 | 0.0367 | 0.596 | 0.78 | 0.619 | 0.866 | 0.365 | 0.331 | 0.456
O=C(c1cc(Cc2n[nH]c(=O)c3ccccc23)ccc1F)N1CCN(C(=O)C2CC2)CC1 [Olaparib] + CC1(C)CCC(CN2CCN(c3ccc(C(=O)NS(=O)(=O)c4ccc(NCC5CCOCC5)c([N+](=O)[O-])c4)c(Oc4cnc5[nH]ccc5c4)c3)CC2)=C(c2ccc(Cl)cc2)C1 [Venetoclax] (first compound max 10 µM, 7x7, partner max 1 µM) | -0.011 | 0.0864 | 0.0348 | -0.0621 | -0.023 | -0.0425 | -0.0426 | -0.0467 | -0.0308 | -0.0121 | -0.0156 | -0.0733 | -0.012 | 0.452 | 0.921 | 0.15 | 0.0578 | 0.0962 | 0.162 | 0.108
O=C(c1cc(Cc2n[nH]c(=O)c3ccccc23)ccc1F)N1CCN(C(=O)C2CC2)CC1 [Olaparib] + CN(CC[C@H](CSC1=CC=CC=C1)NC2=C(C=C(C=C2)S(=O)(=O)NC(=O)C3=CC=C(C=C3)N4CCC(CC4)[C@H](C5=CC=CC=C5C6=CC=C(C=C6)Cl)O)S(=O)(=O)C(F)(F)F)CCO [AZD4320] (first compound max 10 µM, 7x7, partner max 1 µM) | 0.0106 | 0.0356 | 0.0385 | -0.0342 | -0.0299 | -0.0242 | -0.101 | -0.0355 | -0.0213 | -0.131 | -0.0103 | -0.0656 | -0.0169 | 0.876 | 0.988 | 0.431 | 0.116 | 0.274 | 0.466 | 0.0831
O=C(c1cc(Cc2n[nH]c(=O)c3ccccc23)ccc1F)N1CCN(C(=O)C2CC2)CC1 [Olaparib] + COc1nnc2ccc(N3CCC(c4ccc(OCCN5CCN(C)C(=O)[C@H]5C)cc4)CC3)nn12 [AZD5153] (first compound max 10 µM, 7x7, partner max 1 µM) | -0.0248 | 0.0142 | 0.0369 | -0.0718 | -0.0316 | -0.0634 | -0.0404 | -0.0107 | -0.0392 | -0.0621 | -0.0206 | -0.0458 | -0.0329 | 0.949 | 0.909 | 0.374 | 0.518 | 0.338 | 0.559 | 0.41
O=C(c1cc(Cc2n[nH]c(=O)c3ccccc23)ccc1F)N1CCN(C(=O)C2CC2)CC1 [Olaparib] + Cc1c2c(nn1C)CSCc1cc(n(C)n1)CSc1cc(c3ccccc3c1)OCCCc1c(C(=O)O)n(C)c3c-2c(Cl)ccc13 [AZD5991] (first compound max 10 µM, 7x7, partner max 1 µM) | 0.0256 | -0.0034 | -0.016 | -0.0483 | -0.0301 | -0.0409 | -0.0192 | -0.071 | -0.0144 | -0.0125 | -0.0086 | -0.0643 | -0.0076 | 0.996 | 0.93 | 0.0992 | 0.21 | 0.157 | 0.109 | 0.0524
N#Cc1cnc(Nc2cc(NC[C@H]3CNCCO3)c(C(F)(F)F)cn2)cn1 [SRA737] + C=CCn1c(=O)c2cnc(Nc3ccc(N4CCN(C)CC4)cc3)nc2n1-c1cccc(C(C)(C)O)n1 [AZD1775] (first compound max 10 µM, partner max 1 µM) | 0.0327 | 0.0581 | 0.0315 | 0.0399 | -0.0195 | -0.0255 | -0.0139 | 0.0719 | 0.013 | 0.0411 | 0.0011 | -0.0326 | 0.112 | 1 | 0.873 | 0.596 | 0.454 | 0.485 | 0.843 | 0.561
N#Cc1cnc(Nc2cc(NC[C@H]3CNCCO3)c(C(F)(F)F)cn2)cn1 [SRA737] + Nc1ccn([C@@H]2O[C@H](CO)[C@@H](O)C2(F)F)c(=O)n1 [Gemcitabine] (first compound max 10 µM, 7x7, partner max 0.3 µM) | 0.0511 | 0.0004 | -0.0202 | 0.0679 | 0.0048 | 0.0461 | 0.0191 | -0.0233 | 0.029 | 0.057 | 0.0063 | 0.068 | 0.0202 | 1 | 0.93 | 0.737 | 0.932 | 0.773 | 0.957 | 0.782
CC1(C)CCC(CN2CCN(c3ccc(C(=O)NS(=O)(=O)c4ccc(NCC5CCOCC5)c([N+](=O)[O-])c4)c(Oc4cnc5[nH]ccc5c4)c3)CC2)=C(c2ccc(Cl)cc2)C1 [Venetoclax] + CS(=O)(=O)CCNCc1ccc(-c2ccc3ncnc(Nc4ccc(OCc5cccc(F)c5)c(Cl)c4)c3c2)o1 [Lapatinib] (first compound max 1 µM, 7x7, partner max 10 µM) | -0.0188 | 0.017 | 0.0031 | -0.0662 | 0.0097 | -0.0062 | -0.0301 | -0.0697 | -0.0347 | 0.0811 | -0.0369 | -0.0451 | -0.0127 | 0.798 | 0.214 | 0.411 | 0.913 | 0.137 | 0.458 | 0.364
